# Source: US20230321179A1, “N-ACYL AMINO ACID PRODUCTS AND USES” (THE REGENTS OF THE UNIVERSITY OF MICHIGAN, priority 2020, published 2023)
# Key:
# PPARα = biological target: T1, PPARα (Homo sapiens, UniProt Q07869); test: PPREx3-TK-luciferase PPARα reporter assay in COS-1 cells; assay type: cell-based; settings: 24 h
# T1 construct: expressed in transfected cells; host or cells: COS-1
# T1 sequence (Q07869 1-468): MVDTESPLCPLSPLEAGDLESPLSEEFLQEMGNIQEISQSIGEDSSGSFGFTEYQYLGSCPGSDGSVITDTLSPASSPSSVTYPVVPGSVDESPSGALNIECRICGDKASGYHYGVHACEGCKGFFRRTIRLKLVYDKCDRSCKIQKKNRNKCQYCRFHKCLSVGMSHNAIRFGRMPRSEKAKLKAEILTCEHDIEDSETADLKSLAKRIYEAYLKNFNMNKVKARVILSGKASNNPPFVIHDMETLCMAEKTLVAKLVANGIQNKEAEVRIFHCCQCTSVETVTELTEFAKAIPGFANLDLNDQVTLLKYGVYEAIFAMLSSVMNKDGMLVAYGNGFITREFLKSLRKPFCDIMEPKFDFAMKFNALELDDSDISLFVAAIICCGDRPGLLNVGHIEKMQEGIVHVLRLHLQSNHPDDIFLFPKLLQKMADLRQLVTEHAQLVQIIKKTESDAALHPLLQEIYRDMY
# Protocol: COS-1 and HepG2 cells were obtained from the American Type Culture Collection (ATCC) and cultured at 37° C. and 5% CO2 in Dulbecco’s Modified Eagle Medium (DMEM, Gibco) supplemented with 10% fetal bovine serum (FBS, Sigma-Aldrich) and 1% Penicillin-Streptomycin (Pen-Strep, Gibco). For luciferase assays, COS-1 cells were seeded in 96-well plates. At 60-70% confluence, transfection was performed using Lipofectamine 3000 (Invitrogen) with PPREx3-TK-luciferase, PPARα and Renilla constructs at 80 ng, 10 ng and 10 ng, respectively. 24 h post-transfection, cells were serum-starved and treated with 10 µM of the PPARα activator WY-14643 (Cayman Chemicals, 70730), 1 mM of glycine or tripepetide glycine-glycine-leucine or 10 µM of N-acyl amino acids for 24 h (Cayman Chemicals, C20:4-Gly 90051, C18:1-Leu 20064). Luciferase activity was assessed using the Dual-Luciferase Reporter Assay System (Promega) and normalized by Renilla.
# HepG2 cells [1] = test: Seahorse oxygen consumption rate and dependency on FAO; assay type: cell-based; settings: 10 µM acute stimulation, increase attenuated by etomoxir 6 µM
# Protocol: HepG2 cells were obtained from the American Type Culture Collection (ATCC) and cultured at 37° C. and 5% CO2 in Dulbecco’s Modified Eagle Medium (DMEM, Gibco) supplemented with 10% fetal bovine serum (FBS, Sigma-Aldrich) and 1% Penicillin-Streptomycin (Pen-Strep, Gibco). Oxygen consumption rate (OCR) and dependency on FAO were assessed using a Seahorse XFe96 Analyzer (Agilent). HepG2 cells were seeded at 2.5x10^4 cells/well in XF96 cell culture microplates (Agilent). The next day, XFe96 sensor cartridges were hydrated in accordance with the manufacturer’s instructions. Cells were treated (port 1) with N-acyl amino acids (10 µM) or vehicle (EtOH), Etomoxir (Agilent, 6 µM, port 2) and finally with rotenone+antimycin A (R/A, Agilent, port 3).
# HepG2 cells [2] = test: TG biosynthesis and hydrolysis by [3H]-acetate incorporation; assay type: cell-based; settings: 10 µM; for rate of TG biosynthesis: 3 h [3H]-acetate; for rate of TG hydrolysis: additional 3 h after [3H]-acetate withdrawal
# Protocol: For the TG biosynthesis and hydrolysis assays, HepG2 cells were seeded in 12-well plates. At 60-70% confluence, cells were treated with N-acyl amino acids (10 µM) or vehicle (EtOH) in serum-free medium supplemented with 0.1% BSA and stimulated for 3 h at 37° C. with [3H]-acetate (3.3 µCi/ml, ART 0202, American Radiolabeled Chemicals) to assess the rate TG biosynthesis. In some wells, the cells were washed twice with PBS ([3H]-acetate withdrawal) and incubated for additional 3 h with N-acyl amino acids (10 µM) or vehicle (EtOH) in serum-free medium supplemented with 0.1% BSA to assess the rate TG hydrolysis. At the end of the above incubation periods, cells were washed with twice with PBS. Cellular lipids were extracted using hexane (≥99%, Sigma-Aldrich 32293) and isopropanol (≥99.5%, Fisher Scientific A426-4) at a 3:2 ratio (v:v), and the hexane phase was left to evaporate for 48 h. Next, lipids were separated by thin layer chromatography (TLC) on silica gel plates (60 F254, M1057150001, Fisher Scientific) and developed in hexane / ether (≥99.9%, 309966, Sigma-Alrich) / acetic acid (≥99.7%, A38-212, Fisher Scientific) at a 130:30:1.5 ratio (v:v:v). TG spots were visualized by iodine vapor (using an appropriate standard for identification) and [3H]-labels were counted by a Tri-Carb 2810TR liquid scintillation analyzer (PerkinElmer). Data were normalized to protein levels and presented as count per minutes (CPM)/mg cell protein.
# [3] = test system: C57BL/6J mice fed NASH diet; test: Treatment of NASH in mice with I.P. N-oleoyl leucine; assay type: in vivo; settings: 10 mg/kg/d I.P.
# Protocol: C57BL/6J mice were fed a standard diet (SD) or non-alcoholic steatohepatitis (NASH) diet for 16 weeks. After NASH confirmation, mice were randomized to receive 10 mg/kg/d (I.P.) N-oleoyl leucine (C18:1-Leu) or equivalent amounts of oleic acid (C18:1) or vehicle (EtOH) for an additional 6 weeks on the NASH diet. Control mice were fed the SD and administered vehicle.
# [4] = test system: Apolipoprotein E-deficient (Apoe-/-) mice; test: Treatment of atherosclerosis in Western diet-fed mice with I.P. N-oleoyl leucine; assay type: in vivo; settings: 7.5 mg/kg/d I.P., 4 weeks
# Protocol: Apolipoprotein E-deficient (Apoe-′-) mice were fed a Western diet (WD) for 8 weeks. Mice were randomized to receive 7.5 mg/kg/d (I.P.) N-oleoyl leucine (C18:1-Leu) or equivalent amounts of oleic acid (C18:1) for an additional 4 weeks on the WD (n=10).
# [5] = test system: C57BL/6J mice fed NASH diet; test: NASH diet mouse model, oral treatment with tripeptide glycine-glycine-leucine, glycine or leucine; assay type: in vivo
# Protocol: To explore the therapeutic potential of […] against NASH, an experimental approach to model advanced NAFLD was used. As described, C57BL/6J mice were fed a high-fat, high-fructose and high-cholesterol diet (NASH diet) for 12 weeks. After confirming NASH, the mice were randomized to receive orally […] at 0.125 or 0.5 mg/g/day, equivalent amounts of leucine, glycine or H2O for 12 additional weeks on NASH diet. Mice fed low-fat control diet (CD) and administered H2O served as control. Animal procedures were approved (PRO00008239) by the Institutional Animal Care & Use Committee of the University of Michigan (U-M) and performed in accordance with the institutional guidelines. Seven weeks-old male C57BL/were from Jackson Laboratories. After one week of acclimation, mice were fed ad libitum either low-fat control diet (CD, Research Diets D17072805, 10% fat) or high-fat, high-fructose and high-cholesterol diet (NASH diet, Research Diets D17010103). After confirming NASH, the mice were randomized to receive orally […] (Beijing SL Pharmaceutical) at 0.125 or 0.5 mg/g/day, equivalent amounts of leucine (0.17 mg/g/day, Sigma-AldrichL8912), glycine (0.33 mg/g/day, Sigma-Aldrich G5417) or H2O for 12 additional weeks on NASH diet. All histological procedures were performed by the In Vivo Animal Core (IVAC) Histology Laboratory at the U-M. Technicians were blinded to experimental groups. Formalin-fixed tissues were processed through graded alcohols and cleared with xylene followed by infiltration with molten paraffin using an automated VIP5 or VIP6 tissue processor (TissueTek, Sakura-Americas). Using a Histostar Embedding Station (ThermoFisher Scientific), tissues were then sectioned on a […] rotary microtome (ThermoFisher Scientific) at 4 μm thickness and mounted on glass slides. Slides were stained for hematoxylin and eosin (H&E, ThermoFisher Scientific). For Sirius Red staining, slides were treated with 0.2 phosphomolybdic acid for 3 min and transferred to 0.1% Sirius Red saturated in picric acid (Rowley Biochemical Inc.) for 90 min, then transferred to 0.01N hydrochloric acid for 3 min. Frozen section processing was used for Oil Red O staining. Formalin-fixed liver samples were cryoprotected in 20% sucrose at 4° C. overnight, blotted, then liquid nitrogen-snap frozen in OCT compound (Tissue-Tek, Cat #4583) and stored at -80° C. until ready for cryosectioning. Prior to sectioning, frozen blocks were brought up to about -20° C., then sectioned at 5 μm on a Cryotome SME (Thermo-Shandon, Cat# 77200227). Slides were stored at -80° C. until stained. Prior to staining, liver slides were thawed to room temperature for 30 min. Slides were post-fixed in 10% Neutral Buffered Formalin for 20 min, rinsed in DDW, followed by rinsing in 60% isopropanol before being placed in working Oil Red O-isopropanol stain (Rowley Biochemical Inc., H-503-1B) for 5 min. Slides were then rinsed in 60% isopropanol followed by three changes of DDW. Then, slides were nuclear counterstained in Harris Hematoxylin and mounted in Aqua-Mount (Lerner Laboratories, Cat# 13800) aqueous mounting media. Immunohistochemical staining was performed on a […] automated immunohistochemical stainer (Biocare Medical) with blocking for endogenous peroxidases and non-specific binding, followed by detection using a horseradish peroxidase biotin-free polymer based commercial detection system, disclosure with diaminobenzidine chromogen, and nuclear counterstaining with hematoxylin. Specific to F4/80, (Bio-Rad ABD Serotec, Cat# MCA497), the rat monoclonal primary antibody (clone CI:A3-1) was diluted to 1:400 in DaVinci Diluent (Biocare Medical, Cat# PD900) and incubated for 60 min followed by detection using Rat-on-Mouse HRP-Polymer, (Biocare Medical, Cat# RT517) 2-step probe-polymer incubation for 10 and 30 min respectively. H&E staining was used to score NAFLD activity score (NAS). Steatosis was scored from 0-3 (0: <5% steatosis; 1: 5-33%; 2: 34-66%; 3: >67%). […]
# [6] = NASH diet, oral treatment 12 weeks
# [7] = NASH diet, oral treatment 12 weeks, endpoint
smiles,measurement,setting,value
CCCCC/C=C\C/C=C\C/C=C\C/C=C\CCCC(=O)NCC(=O)O [N-arachidonoyl glycine],"luciferase activity (PPARα activation), normalized by Renilla",PPARα; 10 µM,significantly increased
same,oxygen consumption rate (OCR),HepG2 cells [1],significantly increased
same,rate of TG biosynthesis,HepG2 cells [2],attenuated
same,rate of TG hydrolysis,HepG2 cells [2],significantly accelerated
CCCCCCCC/C=C\CCCCCCCC(=O)NCC(=O)O [N-oleoyl glycine],"luciferase activity (PPARα activation), normalized by Renilla",PPARα; 10 µM,significantly increased
CCCCCCCC/C=C\CCCCCCCC(=O)N[C@@H](CC(C)C)C(=O)O [N-oleoyl leucine],"luciferase activity (PPARα activation), normalized by Renilla",PPARα; 10 µM,significantly increased
same,oxygen consumption rate (OCR),HepG2 cells [1],significantly increased
same,rate of TG biosynthesis,HepG2 cells [2],attenuated
same,rate of TG hydrolysis,HepG2 cells [2],only N-arachidonoyl glycine (C20:4-Gly) significantly accelerated
same,body weight,"[3]; 6 weeks, NASH diet",lowers
same,hepatomegaly,"[3]; 6 weeks, liver weight to body weight ratio",significantly lowers
same,circulating liver enzymes,"[3]; 6 weeks, ALT, AST, ALP at endpoint",lowers
same,NASH diet-induced hepatic and systemic inflammation,"[3]; 6 weeks, F4/80, plasma CCL2, CCL5",significantly lowers
same,diet-induced NASH,"[3]; 6 weeks, H&E scoring, NAS",significantly lowers
same,hepatic steatosis,"[3]; 6 weeks, Oil red O histology",significantly lowers
same,NASH diet-induced hepatic fibrosis,"[3]; 6 weeks, Sirius red fibrosis score",significantly lowers
same,systemic energy balance in NASH,"[3]; CLAMS: RER, energy expenditure, food intake, total activity",no significant effect
same,adiposity,"[3]; NASH diet, NMR body composition",without affecting
same,body weight,"[4]; Western diet, vs oleic acid",no significant effects
same,plasma cholesterol,"[4]; Western diet, vs oleic acid",no significant effects
same,atherosclerotic plaque area,"[4]; aortic sinus H&E, vs oleic acid",significantly lowers
same,lesional macrophages,"[4]; aortic sinus Mac-2, vs oleic acid",significantly lowers
"Cc1cccc(Nc2cc(Cl)nc(SCC(=O)O)n2)c1C [WY-14643, reference compound]","luciferase activity (PPARα activation), normalized by Renilla",PPARα; 10 µM,significantly increased
NCC(=O)O [glycine],"decrease of hepatic levels of N-oleoyl glycine, N-arachidonoyl glycine and N-oleoyl leucine in NASH","[5]; LC-MS/MS of liver, chronic treatment",rescued
same,NASH diet-induced hepatomegaly,[5]; [6],significantly reduced
same,hepatic fibrosis (Sirius Red staining),[5]; [6],lower
same,hepatic inflammation (F4/80 macrophage staining),[5]; [6],lower
same,hepatic steatosis (histological analyses),[5]; [6],lower
same,increase in plasma levels of alanine aminotransferase (ALT),[5]; [7],attenuated
same,increase in plasma levels of aspartate aminotransferase (AST),[5]; [7],attenuated
same,suppression of hepatic expression of PPARα and its target genes in NASH,"[5]; RNA-sequencing, liver",reversed
same,"luciferase activity (PPARα activation), normalized by Renilla",PPARα; concentrations of up to 1 mM,neither glycine or tripepetide glycine-glycine-leucine showed a significant effect
